Patent publication US20100331315A1, “RHODANINES AND RELATED HETEROCYCLES AS KINASE INHIBITORS” (priority 2009, published 2010)
Read-outs that look alike come from different tables or passages of the source.

Legend:
recombinant human CK2 = molecular target: T1, recombinant human CK2 (Homo sapiens, UniProt P68400); experiment: CK2 assay (cell-free, 33P-ATP filter plate); type: biochemical
T1 construct: purchased Upstate
Protocol: Modulatory activity of compounds described herein was assessed in vitro in cell-free CK2 assays by the following method.
Test compounds in aqueous solution were added at a volume of 10 microliters, to a reaction mixture comprising 10 microliters Assay Dilution Buffer (ADB; 20 mM MOPS, pH 7.2, 25 mM beta-glycerolphosphate, 5 mM EGTA, 1 mM sodium orthovanadate and 1 mM dithiothreitol), 10 microliters of substrate peptide (RRRDDDSDDD, dissolved in ADB at a concentration of 1 mM), 10 microliters of recombinant human CK2 (25 ng dissolved in ADB; Upstate). Reactions were initiated by the addition of 10 microliters of ATP Solution (90% 75 mM MgCl2, 75 micromolar ATP dissolved in ADB; 10% [γ-^33P]ATP (stock 1 mCi/100 μl; 3000 Ci/mmol (Perkin Elmer) and maintained for 10 minutes at 30 degrees C. The reactions were quenched with 100 microliters of 0.75% phosphoric acid, then transferred to and filtered through a phosphocellulose filter plate (Millipore). After washing each well 5 times with 0.75% phosphoric acid, the plate was dried under vacuum for 5 min and, following the addition of 15 ul of scintillation fluid to each well, the residual radioactivity was measured using a Wallac luminescence counter.

K-562 = experiment: Alamar Blue cell proliferation assay, K-562; type: cell-based; conditions: Homo sapiens, K562, K-562, Table 5, read-out: AB: K-562 IC50
Protocol: (§1) A representative cell-proliferation assay protocol using Alamar Blue dye (stored at 4° C., use 20 ul per well) is described hereafter.
(§2) a. Split and trypsinize cells.
(§3) b. Count cells using hemocytometer.
(§4) c. Plate 4,000-5,000 cells per well in 100 μl of medium and seed into a 96-well plate according to the following plate layout. Add cell culture medium only to wells B10 to B12. Wells B1 to B9 have cells but no compound added.
(§5) d. Add 100 μl of 2× drug dilution to each well in a concentration shown in the plate layout above. At the same time, add 100 μl of media into the control wells (wells B10 to B12). Total volume is 200 μl/well.
(§6) e. Incubate four (4) days at 37° C., 5% CO2 in a humidified incubator.
(§7) f. Add 20 μl Alamar Blue reagent to each well.
(§8) g. Incubate for four (4) hours at 37° C., 5% CO2 in a humidified incubator.
(§9) h. Record fluorescence at an excitation wavelength of 544 nm and emission wavelength of 590 nm using a microplate reader.
(§10) In the assays, cells are cultured with a test compound for approximately four days, the dye is then added to the cells and fluorescence of […] dye is detected after approximately four hours. Different types of cells can be utilized in the assays (e.g., HCT-116 human colorectal carcinoma cells, PC-3 human prostatic cancer cells and MiaPaca human pancreatic carcinoma cells).

MV-4-11 = experiment: Alamar Blue cell proliferation assay, MV-4-11; type: cell-based; conditions: Homo sapiens, MV4-11, MV-4-11, Table 5, read-out: AB: MV-4-11 IC50
Protocol: as §1, §2, §3, §4, §5, §6, §7, §8, §9, §10

recombinant human PIM2 = recombinant human PIM2 (Homo sapiens, UniProt Q9P1W9); experiment: PIM-2 assay (33P-ATP filter plate); type: biochemical; conditions: for IC50: Table 5; for inhibition at 2.5 µM: Table 6, read-out: PIM2: % inh @ 2.5 uM
Protocol: PIM-2 Assay Method: Test compounds dissolved and diluted in DMSO (2 μl) were added to a reaction mixture comprising 10 μl of 5× Reaction Buffer (40 mM MOPS pH 7.0, 5 mM EDTA), 10 μl of recombinant human PIM2 solution (4 ng PIM-2 dissolved in dilution buffer (20 mM MOPS pH 7.0; EDTA 1 mM; 5% Glycerol; 0.01% Brij 35; […]; […] 2-mercaptoethanol; 1 mg/ml BSA)) and 8 ul of water. Reactions were initiated by the addition of 10 ul of ATP Solution (49% (15 mM MgCl2; 75 uM ATP) 1% ([γ-^33P]ATP: Stock 1 mCi/1000; 3000Ci/mmol (Perkin Elmer)) and 10 ul of substrate peptide solution (RSRSSYPAGT, dissolved in water at a concentration of 1 mM), Reactions were maintained for 10 min at 30° C. The reactions were quenched with 100 ul of 0.75% Phosphoric acid, then transferred to and filtered through a Phosphocellulose filter plate (Millipore, MSPH-N6B-50). After washing each well 4 times with 0.75% Phosphoric acid, scintillation fluid (20 uL) was added to each well and the residual radioactivity was measured using a Wallac luminescence counter.

BxPC3 = experiment: Alamar Blue cell proliferation assay, BxPC3; type: cell-based; conditions: Homo sapiens
Protocol: as §1, §2, §3, §4, §5, §6, §7, §8, §9, §10

SUM-149PT = experiment: Alamar Blue cell proliferation assay, SUM-149PT; type: cell-based; conditions: Homo sapiens, SUM149PT
Protocol: as §1, §2, §3, §4, §5, §6, §7, §8, §9, §10

MDAMB453 = experiment: Alamar Blue cell proliferation assay, MDAMB453; type: cell-based; conditions: Homo sapiens
Protocol: as §1, §2, §3, §4, §5, §6, §7, §8, §9, §10

[1] = BXPC-3, BxPC3, Table 5, read-out: AB: BxPC3 IC50
[2] = Table 5, read-out: AB: SUM-149PT IC50
[3] = MDA-MB-453, MDAMB453, Table 5, read-out: AB: MDAMB453 IC50
[4] = BXPC-3, BxPC3, Table 6, read-out: AB: BxPC3 IC50
[5] = Table 6, read-out: AB: SUM-149PT IC50
[6] = MDA-MB-453, MDAMB453, Table 6, read-out: AB: MDAMB453 IC50

T1 sequence (P68400 whole entry): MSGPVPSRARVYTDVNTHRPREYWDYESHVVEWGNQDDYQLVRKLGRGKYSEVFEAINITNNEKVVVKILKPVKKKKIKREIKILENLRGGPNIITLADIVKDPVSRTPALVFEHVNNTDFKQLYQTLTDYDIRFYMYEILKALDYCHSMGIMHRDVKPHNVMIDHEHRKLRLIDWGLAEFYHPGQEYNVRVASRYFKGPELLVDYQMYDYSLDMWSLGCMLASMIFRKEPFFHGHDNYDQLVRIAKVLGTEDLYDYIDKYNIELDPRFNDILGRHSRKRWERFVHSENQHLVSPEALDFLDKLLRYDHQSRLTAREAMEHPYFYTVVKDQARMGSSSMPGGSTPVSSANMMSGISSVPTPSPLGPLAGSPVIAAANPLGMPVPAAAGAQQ
T1 sequence (P67870 whole entry partner): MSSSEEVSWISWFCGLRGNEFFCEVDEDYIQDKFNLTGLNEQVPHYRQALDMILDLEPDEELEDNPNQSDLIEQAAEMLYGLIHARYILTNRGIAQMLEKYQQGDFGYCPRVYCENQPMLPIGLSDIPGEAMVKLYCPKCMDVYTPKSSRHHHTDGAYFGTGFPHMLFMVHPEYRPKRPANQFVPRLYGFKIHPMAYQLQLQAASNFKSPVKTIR
Sequence of recombinant human PIM2 (Q9P1W9 whole entry): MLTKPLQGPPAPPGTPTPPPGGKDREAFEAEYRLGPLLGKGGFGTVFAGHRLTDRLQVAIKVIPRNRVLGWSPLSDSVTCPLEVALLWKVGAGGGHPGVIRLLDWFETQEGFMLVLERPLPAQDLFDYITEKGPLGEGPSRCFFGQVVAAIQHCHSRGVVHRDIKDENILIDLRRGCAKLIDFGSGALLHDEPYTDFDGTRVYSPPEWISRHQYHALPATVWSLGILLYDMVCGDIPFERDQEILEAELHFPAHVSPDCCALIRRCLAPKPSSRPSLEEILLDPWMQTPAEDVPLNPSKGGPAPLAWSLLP

IC50 (recombinant human CK2; Table 5) [µM] | IC50 (K-562) [µM] | IC50 (MV-4-11) [µM] | IC50 (recombinant human PIM2) [µM] | IC50 (BxPC3; [1]) [µM] | IC50 (MDAMB453; [3]) [µM] | IC50 (recombinant human CK2; Table 6) [µM] | inhibition at 2.5 µM (recombinant human PIM2) [%] | IC50 (BxPC3; [4]) [µM] | IC50 (MDAMB453; [6]) [µM] | SMILES | IC50 (SUM-149PT; [2]) [µM] | IC50 (SUM-149PT; [5]) [µM]
< 0.05 | 0.321 | 2.78 | < 0.05 | 23.1 | 4.09 | – | – | – | – | O=C1NC(=O)/C(=C\c2ccc(F)c(-c3cncc(N4CCCN(C(=O)C5CC5)CC4)n3)c2)S1 | 3.94 | –
< 0.05 | 3.58 | 3.88 | < 0.05 | 22.7 | 10.9 | – | – | – | – | CCOC(=O)N1CCCN(c2cncc(-c3cc(/C=C4/SC(=O)NC4=O)ccc3F)n2)CC1 | 4.18 | –
< 0.05 | 0.316 | 0.374 | < 0.05 | 12.7 | 0.318 | – | – | – | – | CC(C)(C)C(=O)N1CCCN(c2cncc(-c3cc(/C=C4/SC(=O)NC4=O)ccc3F)n2)CC1 | 1.02 | –
< 0.05 | 1.21 | 3.23 | < 0.05 | 10.2 | 2.76 | – | – | – | – | CC(C)(C)CC(=O)N1CCCN(c2cncc(-c3cc(/C=C4/SC(=O)NC4=O)ccc3F)n2)CC1 | 1.46 | –
< 0.05 | 4.3 | > 10 | < 0.05 | 18.8 | 10 | – | – | – | – | O=C1NC(=O)/C(=C\c2ccc(F)c(-c3cncc(N4CCCN(C(=O)Nc5ccccc5)CC4)n3)c2)S1 | 6.15 | –
< 0.05 | – | 7.7 | < 0.05 | – | 6.28 | – | – | – | – | CC(C)NC(=O)N1CCCN(c2cncc(-c3cc(/C=C4/SC(=O)NC4=O)ccc3F)n2)CC1 | 1.56 | –
– | – | – | – | – | – | 0.024 | 99.4 | 16.7 | 19.2 | C[C@H](Nc1cncc(-c2csc(/C=C3\SC(=O)NC3=O)c2)n1)C1CC1 | – | 8.72

Continued, compound first:

SMILES | IC50 (recombinant human CK2; Table 5) [µM] | IC50 (K-562) [µM] | IC50 (MV-4-11) [µM] | IC50 (recombinant human PIM2) [µM] | IC50 (BxPC3; [1]) [µM] | IC50 (MDAMB453; [3]) [µM] | IC50 (recombinant human CK2; Table 6) [µM] | inhibition at 2.5 µM (recombinant human PIM2) [%] | IC50 (BxPC3; [4]) [µM] | IC50 (MDAMB453; [6]) [µM] | IC50 (SUM-149PT; [2]) [µM] | IC50 (SUM-149PT; [5]) [µM]
O=C1NC(=O)/C(=C\c2ccc(F)c(-c3cncc(N4CCCN(C(=O)c5ccccc5F)CC4)n3)c2)S1 | < 0.05 | 1.6 | 3.11 | < 0.05 | 20 | 2.69 | – | – | – | – | 2.61 | –
O=C1NC(=O)/C(=C\c2ccc(F)c(-c3cncc(N4CCCN(C(=O)OCc5ccccc5)CC4)n3)c2)S1 | < 0.05 | 2.57 | 3.49 | < 0.05 | 24.9 | 3.98 | – | – | – | – | 8.28 | –
O=C1NC(=O)/C(=C\c2ccc(F)c(-c3cncc(N4CCCN(C(=O)Oc5ccccc5)CC4)n3)c2)S1 | < 0.05 | 9.37 | 6.3 | < 0.05 | 24 | 3.81 | – | – | – | – | 6.69 | –
COC(=O)N1CCCN(c2cncc(-c3cc(/C=C4/SC(=O)NC4=O)ccc3F)n2)CC1 | < 0.05 | 3.65 | 2.52 | < 0.05 | 18.9 | 3.59 | – | – | – | – | 2.05 | –
O=C1NC(=O)/C(=C/c2cc(-c3cncc(N4CCCNCC4)n3)cs2)S1 | – | – | – | – | – | – | 0.00439 | 99.9 | > 30 | 27.7 | – | 25.2
C[C@H](Nc1cncc(-c2cccc(/C=C3\SC(=O)NC3=O)c2)n1)C1CC1 | – | – | – | – | – | – | 0.00144 | 99.9 | 17.2 | 7.21 | – | 0.703
